Active and inactive are the calls of the source. No cut-off for these calls is given here. Where a SMILES comes first, the peptide text is derived from it. Bridges are numbered along the chain shown (N, C = ends). [ ]: non-standard residue; d: D form. The star is where a group is joined. X1 = CC[C@H](C)CCCCC(=O)*; dDab = NCC[C@@H](N)C(=O)O; Dab = NCC[C@H](N)C(=O)O
Experiments:
Cell membrane [1] = assay: Disruption of outer membrane integrity in Pseudomonas aeruginosa ATCC 27853 assessed as increase in fluorescence intensity at 2 times of MIC measured for 12 mins by NPN uptake assay; format: subcellular
Klebsiella pneumoniae [2] = assay: Antibacterial activity against Klebsiella pneumoniae ATCC 700603 infected in male Balb/c mouse model of pneumonia assessed as decrease in decrease in IL-6 level in lung at 5 mg/kg, ip administered at 4 and 12 hrs post-infected and measured after 24 hrs by ELISA; format: functional, organism-based; conditions: time 20.0 hrs
Staphylococcus aureus [3] = assay: Bactericidal activity against Staphylococcus aureus ATCC 25923 assessed as bacterial eradication at 1 times of MIC measured after 360 mins by time-kill kinetics assay; format: functional, organism-based
Pseudomonas aeruginosa [4] = assay: Bactericidal activity against Pseudomonas aeruginosa ATCC 27853 assessed as bacterial killing at 1 to 4 times of MIC by time-kill kinetics assay; format: functional, organism-based; conditions: time <= 360.0 min
Pseudomonas aeruginosa [5] = assay: Antibacterial activity against Pseudomonas aeruginosa ATCC 27853 incubated for 18 hrs in presence of 5% serum by broth microdilution method; format: functional, organism-based
Pseudomonas aeruginosa [6] = assay: Bactericidal activity against Pseudomonas aeruginosa ATCC 27853 assessed as bacterial eradication at 2 times of MIC measured within 30 mins by time-kill kinetics assay; format: functional, organism-based
Pseudomonas aeruginosa [7] = assay: Induction of morphological changes in Pseudomonas aeruginosa ATCC 27853 assessed as cellular fragmentation at 2 times of MIC incubated for 30 to 120 mins by SEM analysis; format: functional, organism-based; conditions: time 30-120 min
Staphylococcus aureus [8] = assay: Induction of morphological changes in Staphylococcus aureus ATCC 25923 assessed as cellular fragmentation at 2 times of MIC incubated for 30 to 120 mins by SEM analysis; format: functional, organism-based; conditions: time 30-120 min
Pseudomonas aeruginosa [9] = assay: Antibacterial activity against Pseudomonas aeruginosa ATCC 27853 incubated for 18 hrs in presence of 2.5% serum by broth microdilution method; format: functional, organism-based
Staphylococcus aureus [10] = assay: Induction of morphological changes in Staphylococcus aureus ATCC 25923 assessed as cell adhesion at 2 times of MIC incubated for 30 to 120 mins by SEM analysis; format: functional, organism-based; conditions: time 30-120 min
Pseudomonas aeruginosa [11] = assay: Induction of morphological changes in Pseudomonas aeruginosa ATCC 27853 assessed as content leakage at 2 times of MIC incubated for 30 to 120 mins by SEM analysis; format: functional, organism-based; conditions: time 30-120 min
Staphylococcus aureus [12] = assay: Induction of morphological changes in Staphylococcus aureus ATCC 25923 assessed as blister formation at 2 times of MIC incubated for 30 to 120 mins by SEM analysis; format: functional, organism-based; conditions: time 30-120 min
Cell membrane [13] = assay: Disruption of outer membrane integrity in Pseudomonas aeruginosa ATCC 27853 assessed as increase in fluorescence intensity at 1 times of MIC measured for 12 mins by NPN uptake assay; format: subcellular
DNA [14] = assay: Binding affinity to Pseudomonas aeruginosa ATCC 27853 DNA at 1 to 8 times of MIC measured after 30 mins by agarose gel electrophoresis; format: nucleic-acid assay
Pseudomonas aeruginosa [15] = assay: Induction of morphological changes in Pseudomonas aeruginosa ATCC 27853 assessed as membrane disruption at 2 times of MIC incubated for 30 to 120 mins by SEM analysis; format: functional, organism-based; conditions: time 30-120 min
Klebsiella pneumoniae [16] = assay: Antibacterial activity against Klebsiella pneumoniae ATCC 700603 infected in male Balb/c mouse model of pneumonia assessed as decrease in bacterial load in lung at 5 mg/kg, ip administered at 4 and 12 hrs post-infected and measured after 24 hrs by agar plate method; format: functional, organism-based; conditions: time 20.0 hrs
Staphylococcus aureus [17] = assay: Antibacterial activity against methicillin-resistant Staphylococcus aureus ATCC 33591 infected in male Balb/c mouse model of full thickness skin wound assessed as reduction in bacterial load in skin at 1 mg/ml pre-infected with bacteria for 1 hrs followed by compound administration at 1,24,48 and 72 hrs post infection and measured 60 hrs post infection by agar plate method; format: functional, organism-based; conditions: time 59.0 hrs
Pseudomonas aeruginosa [18] = assay: Antibacterial activity against Pseudomonas aeruginosa ATCC 27853 incubated for 18 hrs in presence of 10% serum by broth microdilution method; format: functional, organism-based
Pseudomonas aeruginosa [19] = assay: Bactericidal activity against Pseudomonas aeruginosa ATCC 27853 assessed as bacterial eradication at 1 times of MIC measured within 30 mins by time-kill kinetics assay; format: functional, organism-based
Cell membrane [20] = assay: Disruption of membrane integrity in Staphylococcus aureus ATCC 25923 at 2 times of MIC incubated for 30 to 120 mins by SEM analysis; format: subcellular; conditions: time 30-120 min
Staphylococcus aureus [21] = assay: Antibacterial activity against Staphylococcus aureus ATCC 25923 incubated for 18 hrs in presence of 2.5% serum by broth microdilution method; format: functional, organism-based
Pseudomonas aeruginosa [22] = assay: Bactericidal activity against Pseudomonas aeruginosa ATCC 27853 assessed as bacterial eradication at 4 times of MIC measured within 30 mins by time-kill kinetics assay; format: functional, organism-based
Klebsiella pneumoniae [23] = assay: Antibacterial activity against Klebsiella pneumoniae ATCC 700603 infected in male Balb/c mouse model of pneumonia assessed as decrease in decrease in IL-1beta level in lung at 5 mg/kg, ip administered at 4 and 12 hrs post-infected and measured after 24 hrs by ELISA; format: functional, organism-based; conditions: time 20.0 hrs
Pseudomonas aeruginosa [24] = assay: Induction of morphological changes in Pseudomonas aeruginosa ATCC 27853 assessed as blister formation at 2 times of MIC incubated for 30 to 120 mins by SEM analysis; format: functional, organism-based; conditions: time 30-120 min
DNA [25] = assay: Binding affinity to Staphylococcus aureus ATCC 25923 DNA at 1 to 8 times of MIC measured after 30 mins by agarose gel electrophoresis; format: nucleic-acid assay
Staphylococcus aureus [26] = assay: Induction of morphological changes in Staphylococcus aureus ATCC 25923 assessed as content leakage at 2 times of MIC incubated for 30 to 120 mins by SEM analysis; format: functional, organism-based; conditions: time 30-120 min
Staphylococcus aureus [27] = assay: Antibacterial activity against Staphylococcus aureus ATCC 25923 incubated for 18 hrs in presence of 10% serum by broth microdilution method; format: functional, organism-based
Staphylococcus aureus [28] = assay: Bactericidal activity against Staphylococcus aureus ATCC 25923 assessed as bacterial eradication at 2 times of MIC measured after 120 mins by time-kill kinetics assay; format: functional, organism-based
Staphylococcus aureus [29] = assay: Antibacterial activity against methicillin-resistant Staphylococcus aureus ATCC 33591 infected in male Balb/c mouse model of full thickness skin wound assessed as reduction in bacteria in skin wound at 1 mg/ml pre-infected with bacteria for 1 hrs followed by compound administration at 1,24,48 and 72 hrs post infection and measured after 10 days by photographic analysis; format: functional, organism-based; conditions: time 10.0 day
Staphylococcus aureus [30] = assay: Bactericidal activity against Staphylococcus aureus ATCC 25923 assessed as bacterial killing at 1 to 4 times of MIC by time-kill kinetics assay; format: functional, organism-based; conditions: time <= 360.0 min
Pseudomonas aeruginosa [31] = assay: Induction of morphological changes in Pseudomonas aeruginosa ATCC 27853 assessed as cell adhesion at 2 times of MIC incubated for 30 to 120 mins by SEM analysis; format: functional, organism-based; conditions: time 30-120 min
Cell membrane [32] = assay: Disruption of membrane integrity in Pseudomonas aeruginosa ATCC 27853 at 2 times of MIC incubated for 30 to 120 mins by SEM analysis; format: subcellular; conditions: time 30-120 min
Staphylococcus aureus [33] = assay: Antibacterial activity against Staphylococcus aureus ATCC 25923 incubated for 18 hrs in presence of 5% serum by broth microdilution method; format: functional, organism-based
Pseudomonas aeruginosa [34] = assay: Antibiofilm activity in Pseudomonas aeruginosa ATCC 27853 assessed as inhibition of biofilm formation at 1/2 times of MIC incubated for 24 hrs by crystal violet staining based analysis; format: functional, organism-based
Cell membrane [35] = assay: Induction of inner membrane permeabilization in Escherichia coli ML-35 ATCC 43837 assessed as increase in […] measured for 135 mins by ONPG based analysis; format: subcellular
Staphylococcus aureus [36] = assay: Bactericidal activity against Staphylococcus aureus ATCC 25923 assessed as bacterial killing measured upto 360 mins by time-kill kinetics assay; format: functional, organism-based
Cell membrane [37] = assay: Disruption of outer membrane integrity in Pseudomonas aeruginosa ATCC 27853 assessed as increase in fluorescence intensity at 4 times of MIC measured for 12 mins by NPN uptake assay; format: subcellular
Staphylococcus aureus [38] = assay: Bactericidal activity against Staphylococcus aureus ATCC 25923 assessed as bacterial eradication at 4 times of MIC measured after 120 mins by time-kill kinetics assay; format: functional, organism-based
Staphylococcus aureus [39] = assay: Induction of morphological changes in Staphylococcus aureus ATCC 25923 assessed as membrane disruption at 2 times of MIC incubated for 30 to 120 mins by SEM analysis; format: functional, organism-based; conditions: time 30-120 min
Pseudomonas aeruginosa [40] = assay: Bactericidal activity against Pseudomonas aeruginosa ATCC 27853 assessed as bacterial killing measured upto 360 mins by time-kill kinetics assay; format: functional, organism-based
Klebsiella pneumoniae [41] = assay: Antibacterial activity against Klebsiella pneumoniae ATCC 700603 infected in male Balb/c mouse model of pneumonia assessed as decrease in decrease in TNF-alpha level in lung at 5 mg/kg, ip administered at 4 and 12 hrs post-infected and measured after 24 hrs by ELISA; format: functional, organism-based; conditions: time 20.0 hrs
Pseudomonas aeruginosa [42] = assay: Antibacterial activity against Pseudomonas aeruginosa ATCC 27853 assessed as inhibition of bacterial growth compound pretreated with 32 microg/ml of LPS for 1 hrs followed by bacterial addition and measured after 18 hrs by absorbance based assay; format: functional, organism-based

SMILES: CC(C)CCCCC(=O)N[C@@H](CCN)C(=O)N[C@H](C(=O)N[C@@H](CCN)C(=O)N[C@H]1CCNC(=O)[C@H]([C@@H](C)O)NC(=O)[C@H](CCN)NC(=O)[C@H](CCN)NC(=O)[C@H](CC(C)C)NC(=O)[C@@H](Cc2ccccc2)NC(=O)[C@@H](CCN)NC1=O)[C@@H](C)O.CC[C@H](C)CCCCC(=O)N[C@@H](CCN)C(=O)N[C@H](C(=O)N[C@@H](CCN)C(=O)N[C@H]1CCNC(=O)[C@H]([C@@H](C)O)NC(=O)[C@H](CCN)NC(=O)[C@H](CCN)NC(=O)[C@H](CC(C)C)NC(=O)[C@@H](Cc2ccccc2)NC(=O)[C@@H](CCN)NC1=O)[C@@H](C)O (X1-[Dab]T[Dab][Dab][dDab][dF]L[Dab][Dab]T; lactam 4-C)
- Activity (Cell membrane [1]): Active
- Activity (Klebsiella pneumoniae [2]): inactive
- Activity (Staphylococcus aureus [3]): Active
- Activity (Pseudomonas aeruginosa [4]): Time-dependent-effect
- Activity (Pseudomonas aeruginosa [5]): Active
- Activity (Pseudomonas aeruginosa [6]): Active
- Activity (Pseudomonas aeruginosa [7]): Active
- Activity (Staphylococcus aureus [8]): Active
- Activity (Pseudomonas aeruginosa [9]): Active
- Activity (Staphylococcus aureus [10]): Active
- Activity (Pseudomonas aeruginosa [11]): Active
- Activity (Staphylococcus aureus [12]): Active
- Activity (Cell membrane [13]): Active
- Activity (DNA [14]): Not active; Weak Binding Affinity Observed
- Activity (Pseudomonas aeruginosa [15]): Active
- Activity (Klebsiella pneumoniae [16]): Active
- Activity (Staphylococcus aureus [17]): Active
- Activity (Pseudomonas aeruginosa [18]): Active
- Activity (Pseudomonas aeruginosa [19]): Active
- Activity (Cell membrane [20]): Active
- Activity (Staphylococcus aureus [21]): Active
- Activity (Pseudomonas aeruginosa [22]): Active
- Activity (Klebsiella pneumoniae [23]): Active
- Activity (Pseudomonas aeruginosa [24]): Active
- Activity (DNA [25]): Not active; Weak Binding Affinity Observed
- Activity (Staphylococcus aureus [26]): Active
- Activity (Staphylococcus aureus [27]): Active
- Activity (Staphylococcus aureus [28]): Active
- Activity (Staphylococcus aureus [29]): Active; Obvious Facilitation Of Wound Healing Not Observed
- Activity (Staphylococcus aureus [30]): Time-dependent-effect
- Activity (Pseudomonas aeruginosa [31]): Active
- Activity (Cell membrane [32]): Active; Pronounced Detrimental Effect Observed
- Activity (Staphylococcus aureus [33]): Active
- Activity (Pseudomonas aeruginosa [34]): inactive
- Activity (Cell membrane [35]): Active; Lower Concentration Of Compound Is Sufficient To Disrupt Inner Membrane
- Activity (Staphylococcus aureus [36]): Dose-dependent-effect
- Activity (Cell membrane [37]): Active; Maximum Permeability Effects Observed
- Activity (Staphylococcus aureus [38]): Active
- Activity (Staphylococcus aureus [39]): Active
- Activity (Pseudomonas aeruginosa [40]): Dose-dependent-effect
- Activity (Klebsiella pneumoniae [41]): Active
- Activity (Pseudomonas aeruginosa [42]): Not active; Compound Binds To Lps To Exert Its Activity
